Measured values as given in patent US10434103B2, “Crystal of 3,5-disubstituted benzene alkynyl compound” (TAIHO PHARMACEUTICAL CO., LTD., priority 2015, dated 2019).

Assays:
in vivo = details: BALB/c, mouse, plasma, po, 50 mg/kg
Procedure: (§1) After 0.5, 1, 2, 4, and 6 hours from administration, blood of each mouse was collected from the retro-orbital sinus, and the concentration of compound 1 in plasma was measured.

[1] = Differential scanning calorimetry (DSC), phase transition on heating; details: when the temperature was increased (10° C./min)
Procedure: DSC measurement was performed under the following conditions.
Device: TA Instruments Q1000
Sample Container: made of aluminum
Temperature Increase Rate: 10° C./min
Atmospheric Gas: Nitrogen
Nitrogen Gas Flow: 50 ml/min

[2] = Oral absorbability: plasma concentration of compound 1 after oral administration to mice; details: BALB/c mice, 50 mg/kg, suspension in 0.5% HPMC aqueous solution, plasma sampled 0.5-6 hours
Procedure: as §1

SMILES	AUC (in vivo) [µM·h]	peak that suggests a phase transition in DSC measurement [1]	AUC [2] [µM·h]
C=CC(=O)N1CC[C@H](n2nc(C#Cc3cc(OC)cc(OC)c3)c3c(N)ncnc32)C1 [Crystal I, (S)-1-(3-(4-amino-3-((3,5-dimethoxyphenyl)ethynyl)-1H-pyrazolo[3,4-d]pyrimidin-1-yl)-1-pyrrolidinyl)-2-propen-1-one]	9.82	did not exhibit a peak that suggests a phase transition	–
C=CC(=O)N1CC[C@H](n2nc(C#Cc3cc(OC)cc(OC)c3)c3c(N)ncnc32)C1 [Crystal II, (S)-1-(3-(4-amino-3-((3,5-dimethoxyphenyl)ethynyl)-1H-pyrazolo[3,4-d]pyrimidin-1-yl)-1-pyrrolidinyl)-2-propen-1-one]	–	did not exhibit a peak that suggests a phase transition	4.99
